Data published in patent publication US11241480B2, “Methods for modulation of dietary and microbial exposure with compositions comprising an EGFR ligand” (Washington University, priority 2017, dated 2022).
Entries after “also recorded” stand apart in the source; their conditions may differ.

What was measured:
C57BL/6 mice [1] = experiment: Oral tolerance and delayed type hypersensitivity (DTH) response to Ova; type: in vivo
Description: Antibiotic treatment: Mice were given a combination of antibiotics (Abx) ampicillin (1 g/L), metronidazole (1 g/L), neomycin (1 g/L), and vancomycin (500 mg/L) in drinking water for the time periods outlined in the figure legends.
EGFRi treatment: Mice were injected with 500 μg/kg tyrphostin AG1478 (an inhibitor of EGFR phosphorylation) in the neonatal, post-neonatal, or weaned phase on DOLs noted in the text or figure legends.
Oral tolerance and Delayed Type Hypersensitivity Responses: Mice, and/or nursing dams, when treated prior to weaning, were given Ova 20 g/L in drinking water, or drinking water alone for the intervals defined in the figure legend. Four weeks and six weeks following dietary Ova exposure mice were immunized subcutaneously with 100 μg Ova in incomplete Freund's Adjuvant (Sigma Aldrich). Two weeks after the last immunization mice were challenged with 20 μg Ova in the footpad, body temperature monitored for one hour, and the increase in footpad thickness evaluated using measurements taken with micrometer calipers taken before and 24 hours after challenge. To directly evaluate colonic antigen delivery and blockade of GAPs in the development of tolerance, enemas containing Ova 10 μg/gm body weight with or without 10 μg EGF were administered intrarectally every other day five times from DOL 14 to 22 (post-neonatal phase) or DOL 56 to 64 (adult). Mice were rested three weeks, and then systemically immunized and challenged in the footpad as above.

CBir1 T cells = experiment: Adoptive transfer of CBir1/DP1 TCR transgenic T cells; type: in vivo, mice
Description: Isolation of cellular populations and flow cytometry: Small intestines or colons were harvested, rinsed with PBS, and Peyer's patches or colonic patches were removed. Epithelial cellular populations were released by incubating for 15 min three times in a 37° C. rotating incubator in HBSS media (BioWhittaker, Walkersville, Md.) containing 5 mM EDTA as previously described. Isolation of splenic, MLN and lamina propria (LP) cellular populations was performed as previously described. In some experiments, single cell suspensions of MLN were cultured in cell culture media for three days as previously described. The first wash of HBSS+EDTA was used to isolate goblet cells as below. SI and colonic LP-MNPs were identified as 7AAD^−, CD45^+, CD11c^+, MHCII^+for flow cytometric sorting. Goblet cells were identified as CD45^−, CD24^−CK18^+, UEA-I^+for flow cytometric sorting as previously described. For intracellular antigens and cytokines, cells were fixed and permeabilized overnight and stained per the manufacturers recommendations (eBioscience). Flow cytometry was performed with a FACScan cytometer (BD Biosciences, San Jose, Calif.) retrofitted with additional lasers. Data acquisition was performed using CellQuest (BD Biosciences) and Rainbow (Cytek,Fremont, Calif.) or FlowJo software (Tree Star, Ashland, OR). Data analysis was performed on a Macintosh computer running FlowJo software.
(§1) Treatments to alter GAPs: Acute induction or inhibition of GAPs was performed as previously described. Mice were given 500 μg/kg tyrphostin AG1478 i.p. to inhibit of EGFR activation, 10 mg/kg U0126 i.p. to inhibit MAPK/ERK (MEK1/MEK2) activation, 150 μg/kg carbamylcholine (acetycholine analogue) i.p., 100 mg/kg tropicamide (mAChR4 selective antagonist) i.p., 1 μg recombinant murine EGF (Shenandoah) in 20 μl PBS intracolonic, 10 μg LPS intraluminally, or 100 μl stomach contents from a DOL10 mice intraluminally, or 100 μl heat killed cecal contents from SPF housed adult mice intraluminally. Reagents from Sigma Aldrich, St. Louis, Mo. unless otherwise noted.
(§2) Adoptive T cell Transfer: 10^5 splenic CD4^+ T cells from CD45.1 CBir1 TCR transgenic mice, CD45.1+ DP1 TCR transgenic mice, or CD45.1+ OTII TCR transgenic mouse were enriched by magnetic particles (Stemcell Technology, #19752 Vancouver, British Columbia, Canada) and injected i.v. into mice. In some experiments cells were labeled with CFSE prior to injection, and MLNs of recipient mice were analyzed three days posts transfer. Mice were analyzed seven days posts transfer to evaluate the presence of the transferred population in the LP. In some experiments, in FIG. 34, FIG. 37, and FIG. 39, cells were transferred on DOL 16, and analyzed on DOL 30 or after 8 days of DSS treatment on DOL 38.

C57BL/6 mice [2] = experiment: DSS colitis after early-life manipulation of GAPs; type: in vivo; details: 3% DSS DOL30-38
Description: as §1, §2
DSS colitis: Mice were given DSS (36,000-50,000 MW, Reagent grade, MP Biomedicals) in drinking water ad libitum for eight days. Math1^fl/fl ERT2^ViCre mice and litter mates were given 1.5% DSS due to their increased susceptibility to disease. Weight was measured daily. On the final day, colons were measured for length to assess shortening, and were fixed in buffered formalin and embedded in paraffin for sectioning. H/E sections were scored for disease as before. In some experiments, colon LP was isolated on the final day of DSS treatment to analyze endogenous T cell and transferred CBir1 T cell populations.

[3] = dietary Ova DOL 0-30, EGFRi DOL 6 and 8 or DOL 24 and 26
[4] = EGFR inhibitors on DOL24 and 26 post-weaning
[5] = EGF on DOL10-21 or EGFR inhibition on DOL 24 and 26
[6] = EGFR inhibitors on DOL14 and 16 (post-neonatal phase)
[7] = intracolonic EGF DOL10-21, transfer DOL16

COc1cc2ncnc(Nc3cccc(Cl)c3)c2cc1OC [EGFRi, tyrphostin AG1478]
lethargy/hypothermia upon rechallenge with sterile Ova in the footpad (C57BL/6 mice [1]; [3]): lethargic and hypothermic | oral tolerance (footpad swelling upon Ova rechallenge) (C57BL/6 mice [1]; [3]): significantly abrogated | lethargy/hypothermia upon rechallenge with sterile Ova in the footpad (C57BL/6 mice [1]; dietary Ova DOL 0-30, EGFRi DOL 6 and 8 or DOL 24 and 26, listed as inhibitor of EGFR activation): developed hypothermia | Foxp3 expression of transferred CBir1 T cells on DOL30 (CBir1 T cells; [4]): significantly less Foxp3 | inflammatory cytokine expression of CBir1 T cells on DOL30 (CBir1 T cells; [4]): significantly greater proportion of the population expressed inflammatory cytokines | Foxp3 expression of CBir1 and DP1 T cells in colon LP seven days post transfer (CBir1 T cells; antigen encounter post-weaning, DOL28, under EGFR inhibition): little Foxp3 expression | Foxp3 and inflammatory cytokine expression of transferred CBir1 T cells on DOL30 (CBir1 T cells; inhibition of EGFR on DOL14 and 16 (post-neonatal phase), vs controls): no significant difference in the expression of Foxp3+ or inflammatory cytokines | expansion of transferred CBir1 T cells in colon LP on DOL30 (CBir1 T cells; inhibition of EGFR on DOL14 and 16 or on DOL24 and 26): did not affect the expansion of transferred CBir1 T cells | expansion and activation of transferred CBir1 or DP1 cells in the MLN (CBir1 T cells; post-weaning mice (DOL28), three days after transfer): allowed adoptively transferred CBir1 or DP1 cells to expand and become activated | Foxp3 expression of transferred CBir1 T cells after DSS (C57BL/6 mice [2]; [5]): significantly reduced Foxp3 expression | disease severity in DSS colitis (histology, colon length) (C57BL/6 mice [2]; [5]): developed significantly worse disease | expansion of CBir1 T cells in colon LP after DSS (C57BL/6 mice [2]; [5]): significant expansion of CBir1 T cells in colon LP | inflammatory cytokines of transferred CBir1 T cells after DSS (C57BL/6 mice [2]; [5]): significantly increased inflammatory cytokines | weight loss in DSS colitis (C57BL/6 mice [2]; [5]): lost significantly more weight | Foxp3 and inflammatory cytokine expression of CBir1 T cells after DSS (C57BL/6 mice [2]; [6]): continued expressing Foxp3 but not inflammatory cytokines | expansion of CBir1 T cells in colon LP after DSS (C57BL/6 mice [2]; [6]): did not expand further in the colon LP

EGF: recombinant murine EGF (Shenandoah); EGFR ligand, given luminally or intracolonically
tolerance to luminal Ova (DTH, footpad thickness) (C57BL/6 mice [1]; Ova enemas with EGF every other day DOL 14-22 (post-neonatal phase colon)): abrogated tolerance to luminal Ova; also recorded: attenuates tolerance to a luminal antigen | Foxp3 expression of transferred CBir1 T cells on DOL30 (CBir1 T cells; [7]): significantly less Foxp3 | expansion of transferred CBir1 T cells in colon LP on DOL30 (CBir1 T cells; [7]): significantly less expansion | inflammatory cytokine expression (IL-17, TNFα, IFNγ) of CBir1 T cells on DOL30 (CBir1 T cells; intracolonic EGF DOL10-21, vs PBS treated control mice): significantly larger proportion of the remaining CBir1 T cell population expressed inflammatory cytokines | expansion of CBir1 cells in the colon draining MLN three days post transfer (CBir1 T cells; post-neonatal mice, intracolonic recombinant EGF (1 μg daily DOL10-21)): failed to expand | Foxp3 expression of transferred CBir1 T cells after DSS (C57BL/6 mice [2]; [5]): significantly reduced Foxp3 expression | disease severity in DSS colitis (histology, colon length) (C57BL/6 mice [2]; [5]): developed significantly worse disease | expansion of CBir1 T cells in colon LP after DSS (C57BL/6 mice [2]; [5]): significant expansion of CBir1 T cells in colon LP | inflammatory cytokines of transferred CBir1 T cells after DSS (C57BL/6 mice [2]; [5]): significantly increased inflammatory cytokines | weight loss in DSS colitis (C57BL/6 mice [2]; [5]): lost significantly more weight
